The target in test [1] is T1, β-kinase domain of the human insulin receptor (CKD) (Homo sapiens, UniProt P06213).
T1 construct: The complete β-kinase domain of the human insulin receptor (CKD) was expressed in, and purified from, baculovirus; made in house
In words: 32P-cytoplasmic kinase domain (CKD) autophosphorylation assay. Conditions: phosphorylation of CKD expressed as % of the vehicle level; 10 minutes at room temperature; compound concentration not given. It counts as biochemical. The method, then: ^32P-cytoplasmic Kinase Domain (CKD) Autophosphorylation Assay The insulin signaling pathway is activated through stimulation of the insulin receptor. A major component of this activation is the phosphorylation of a specific portion of the receptor called the β-kinase domain. The complete β-kinase domain of the human insulin receptor (CKD) was expressed in, and purified from, baculovirus. CKD (4.0μg/ml), in a solution of 29 mM HEPES (pH 7.6), 0.05% Triton X-100, 10 mM MgCl2, 2 mM MnCl2 (50 μl final volume), was combined with 50 μM ATP, and 5 μCi ^32P-ATP (3000Ci/mmol.). A test compound, or the vehicle (dimethyl sulfoxide (DMSO)) was added to a final DMSO concentration of 1%. The mixture was incubated for 10 minutes at room temperature. The reaction was terminated by the addition of 10 μl 200 mM EDTA. A 30 μl volume was removed, mixed with 5 μl of 6× Laemmeli sodium dodecyl sulfate (SDS) treatment buffer, and heated to 94° C. for 5 minutes. A 20 μl aliquot was then run an SDS-PAGE gel. The radioactivity incorporated into the CKD band was quantified by phosphorimaging of the gel, or scintillation counting of the excised bands. The potency of a compound for increasing phosphorylation was expressed as % of the vehicle level.

The subject of the next test is 3T3 L1 fibroblasts. The experiment in a line: Glucose transport activity assay (14C-2-deoxy-D-glucose uptake). It counts as cell-based. The method in brief:
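Differentiated 3T3 L1 adipocytes (IBMX/dexamethasone/insulin induction), serum-starved overnight, preincubated 30 min at 37 °C with compound ± insulin in pH 7.4 salt buffer, then 30 min with 5 μCi/ml 14C-2-deoxy-D-glucose. Lysate radioactivity counted; EC = concentration raising uptake above 150% of vehicle control.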

Setting [2] is: Mus musculus, EC (effective concentration) for increase in glucose transport, 14C-2-deoxy-D-glucose, 3T3 L1 cells, read-out: Concentration (μM) to reach >150% activity of vehicle control.
[3] abbreviates: EC (effective concentration) for increase in glucose transport, 14C-2-deoxy-D-glucose, 3T3 L1 cells, read-out: Concentration (μM) to reach >150% activity of vehicle control.

The values below come from US7071231B2, “Naphthalene ureas as glucose uptake enhancers” (Telik, Inc., priority 1999, dated 2006).

Counter-ions that a name gives are not always drawn. Like-named read-outs stand apart in the source and are kept apart here.

T1 sequence (P06213 980-1382 limits assumed): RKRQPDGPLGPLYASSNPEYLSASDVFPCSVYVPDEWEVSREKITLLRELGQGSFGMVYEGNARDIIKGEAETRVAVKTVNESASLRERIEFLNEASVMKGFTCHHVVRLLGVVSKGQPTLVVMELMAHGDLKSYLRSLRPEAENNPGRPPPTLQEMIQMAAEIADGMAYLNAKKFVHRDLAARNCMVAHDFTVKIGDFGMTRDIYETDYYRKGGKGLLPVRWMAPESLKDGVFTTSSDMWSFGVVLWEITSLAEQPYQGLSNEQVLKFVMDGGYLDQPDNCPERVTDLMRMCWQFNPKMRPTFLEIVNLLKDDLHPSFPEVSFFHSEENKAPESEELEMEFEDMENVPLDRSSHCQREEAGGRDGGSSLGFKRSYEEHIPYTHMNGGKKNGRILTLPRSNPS

Turning to `O=C(Nc1ccc2ccc(S(=O)(=O)Nc3ccccc3)cc2c1)Nc1ccc2ccc(S(=O)(=O)Nc3ccccc3)cc2c1` [Compound 76, N-{7-[(phenylamino)sulfonyl](2-naphthyl)}({7-[(phenylamino)sulfonyl](2-naphthyl)}amino)carboxamide], the “% Activity vs. Control” value in test [1] stood at 89%. Take `O=C(Nc1ccc2ccc(S(=O)(=O)Nc3cccnc3)cc2c1)Nc1ccc2ccc(S(=O)(=O)Nc3cccnc3)cc2c1` [Compound 77, N-{7-[(3-pyridylamino)sulfonyl](2-naphthyl)}({7-[(3-pyridylamino)sulfonyl](2-naphthyl)}amino)carboxamide]: the “% Activity vs. Control” value in test [1] was determined as 171%. Moreover, the EC (150% of vehicle control) with 3T3 L1 fibroblasts (setting [2]) came out at 3.2 µM.

Regarding `CCOC(=O)COc1cc(S(=O)(=O)O)cc2cc(NC(=O)Nc3ccc4c(O)cc(S(=O)(=O)O)cc4c3)ccc12.N.N` [Compound 94, 7-[({5-[(ethoxycarbonyl)methoxy]-7-sulfo(2-naphthyl)}amino)carbonylamino]-4-hydroxy-naphthalene-2-sulfonic acid, diammonium salt], the “% Activity vs. Control” value in test [1] stood at 279%. For the same molecule, the EC (150% of vehicle control) in the test with 3T3 L1 fibroblasts (setting [3]) came to 32 µM. Turning to `O=C(Nc1ccc2c(O)c(Br)c(S(=O)(=O)O)cc2c1)Nc1ccc2c(O)c(Br)c(S(=O)(=O)O)cc2c1` [Compound 16, 3-bromo-7-{[(6-bromo-5-hydroxy-7-sulfo(2-naphthyl))amino]carbonylamino}-4-hydroxynaphthalene-2-sulfonic acid disodium salt], in test [1], the “% Activity vs. Control” value amounted to 144%. In addition, in the test with 3T3 L1 fibroblasts (setting [2]), the EC (150% of vehicle control) worked out at 32 µM. On to `O=C(Nc1ccc2c(O)cc(S(=O)(=O)O)cc2c1)Nc1ccc2c(O)cc(S(=O)(=O)Nc3cccc(S(=O)(=O)O)c3)cc2c1` [Compound 14, 4-hydroxy-7-{[(5-hydroxy-7-{[(3-sulfophenyl)amino]sulfonyl}(2-naphthyl))amino]carbonylamino}naphthalene-2-sulfonic acid], for which, in test [1], the “% Activity vs. Control” value was 110%.

As to `O=C(Nc1ccc2c(O)cc(S(=O)(=O)O)cc2c1)Nc1ccc2c(OCCCS(=O)(=O)O)cc(S(=O)(=O)O)cc2c1` [Compound 102, 4-hydroxy-7-({[7-sulfo-5-(3-sulfopropoxy)(2-naphthyl)]amino}carbonylamino)naphthalene-2-sulfonic acid], the “% Activity vs. Control” value in test [1] is 115%.

For the molecule `COC(=O)c1ccc(NS(=O)(=O)c2cc(O)c3ccc(NC(=O)Nc4ccc5c(O)cc(S(=O)(=O)Nc6ccc(C(=O)OC)cc6)cc5c4)cc3c2)cc1` [Compound 27, methyl 4-({[4-hydroxy-7-({[5-hydroxy-7-({[4-(methoxycarbonyl)phenyl]amino}sulfonyl)(2-naphthyl)]amino}carbonylamino)-2-naphthyl]sulfonyl}amino)benzoate], in test [1], the “% Activity vs. Control” value stood at 112%. For the molecule `Cc1ccc(OS(=O)(=O)c2cccc(NS(=O)(=O)c3ccc4ccc(NC(=O)Nc5ccc6ccc(S(=O)(=O)Nc7cccc(S(=O)(=O)Oc8ccc(C)cc8)c7)cc6c5)cc4c3)c2)cc1` [Compound 9, 4-methylphenyl 3-[({7-[(N-{7-[({3-[(4-methylphenyl)oxysulfonyl]phenyl}amino)sulfonyl]-2-naphthyl}carbamoyl)amino]-2-naphthyl}sulfonyl)amino]benzenesulfonate], the “% Activity vs. Control” value in test [1] is recorded as 118%. On the same count and under the same terms, the same measure for `O=C(Nc1ccc2ccc(S(=O)(=O)O)cc2c1)Nc1ccc2ccc(S(=O)(=O)Nc3cccc(S(=O)(=O)O)c3)cc2c1` [Compound 12, 7-{[(7-{[(3-sulfophenyl)amino]sulfonyl}-2-naphthyl)amino]carbonylamino}naphthalene-2-sulfonic acid disodium salt]: 131%; for `O=C(O)COc1cc(S(=O)(=O)[O-])cc2cc(NC(=O)Nc3ccc4c(OCC(=O)O)cc(S(=O)(=O)[O-])cc4c3)ccc12.[Na+].[Na+]` [Compound 97, 2-[6-({N-[5-(carboxymethoxy)-7-sulfo(2-naphthyl)]carbamoyl}amino)-3-sulfonaphthyloxy]acetic acid disodium salt]: 99%; for `CCOC(=O)COc1cc(S(=O)(=O)O)cc2cc(NC(=O)Nc3ccc4c(OCC(=O)OCC)cc(S(=O)(=O)O)cc4c3)ccc12.N.N` [Compound 95, 4-[(ethoxycarbonyl)-methoxy]-7-[({5-[(ethoxycarbonyl)methoxy]-7-sulfo(2-naphthyl)}amino)-carbonylamino]-naphthalene-2-sulfonic acid, diammonium salt]: 101%.

As to `O=C(Nc1ccc2c(OCCCS(=O)(=O)O)cc(S(=O)(=O)O)cc2c1)Nc1ccc2c(OCCCS(=O)(=O)O)cc(S(=O)(=O)O)cc2c1` [Compound 101, 4-(3-sulfopropoxy)-7-({[7-sulfo-5-(3-sulfopropoxy)(2-naphthyl)]amino}carbonylamino)naphthalene-2-sulfonic acid], the “% Activity vs. Control” value in test [1] turned out to be 104%. Same read-out and setting: the same measure for `O=C(Nc1ccc2c(OCc3ccccc3S(=O)(=O)O)cc(S(=O)(=O)O)cc2c1)Nc1ccc2c(OCc3ccccc3S(=O)(=O)O)cc(S(=O)(=O)O)cc2c1` [Compound 100, 4-[(2-sulfophenyl)methoxy]-7-[({7-sulfo-5-[(2-sulfophenyl)methoxy](2-naphthyl)}amino)carbonylamino]naphthalene-2-sulfonic acid]: 79%. In the case of `O=C(Nc1ccc2ccc(S(=O)(=O)Nc3cccc(O)c3)cc2c1)Nc1ccc2ccc(S(=O)(=O)Nc3cccc(O)c3)cc2c1` [Compound 81, N-(7-{[(3-hydroxyphenyl)amino]sulfonyl}(2-naphthyl))[(7-{[(3-hydroxyphenyl)amino]sulfonyl}(2-naphthyl))amino]carboxamide], in the test on 3T3 L1 fibroblasts (setting [2]), the EC (150% of vehicle control) worked out at 3.2 µM. With `O=C(Nc1ccc2ccc(S(=O)(=O)Nc3cccc([N+](=O)[O-])c3)cc2c1)Nc1ccc2ccc(S(=O)(=O)Nc3cccc([N+](=O)[O-])c3)cc2c1` [Compound 84, N-(7-{[(3-nitrophenyl)amino]sulfonyl}(2-naphthyl))[(7-{[(3-nitrophenyl)amino]sulfonyl}(2-naphthyl))amino]carboxamide], in the test with 3T3 L1 fibroblasts (Mus musculus, 3T3-L1, read-out: Concentration (μM) to reach >150% activity of vehicle control), the EC (150% of vehicle control) worked out at 3.2 µM. With `O=C(Nc1ccc2ccc(S(=O)(=O)Nc3cccc(S(=O)(=O)O)c3)cc2c1)Nc1ccc2ccc(S(=O)(=O)Nc3cccc(S(=O)(=O)O)c3)cc2c1` [Compound 114, 3-{[(7-{[N-(7-{[(3-sulfophenyl)amino]sulfonyl}-2-naphthyl)carbamoyl]amino}-2-naphthyl)sulfonyl]amino}benzenesulfonic acid disodium salt], the EC (150% of vehicle control) in the test with 3T3 L1 fibroblasts (setting [2]) was found to be 3.2 µM.

Turning to `CN=C(Nc1ccc2ccc(NS(=O)(=O)c3ccc(Cl)c(C(=O)O)c3)cc2c1)Nc1ccc2ccc(NS(=O)(=O)c3ccc(Cl)c(C(=O)O)c3)cc2c1` [Compound 162, 5-({[7-({(1E)-2-aza-1-[(7-{[(3-carboxy-4-chlorophenyl)sulfonyl]amino}(2-naphthyl))amino]prop-1-enyl}amino)(2-naphthyl)]amino}sulfonyl)-2-chlorobenzoic acid], the EC (150% of vehicle control) in the test with 3T3 L1 fibroblasts (setting [3]) is recorded as >32 µM. The same measure, in the same setting: the same measure for “5-[({7-[3-(7-{[(3-carboxy-4-hydroxyphenyl)amino]sulfonyl}(2-naphthyl))-2-oxoimidazolidinyl](2-naphthyl)}sulfonyl)amino]-2-hydroxybenzoic acid [Compound 122]”: 32 µM. Turning to `O=C(Nc1ccc2c(O)cc(S(=O)(=O)Nc3cccc(CO)c3)cc2c1)Nc1ccc2c(O)cc(S(=O)(=O)Nc3cccc(CO)c3)cc2c1` [Compound 82, N-[5-hydroxy-7-({[3-(hydroxymethyl)phenyl]amino}sulfonyl)(2-naphthyl)]{[5-hydroxy-7-({[3-(hydroxymethyl)phenyl]amino}sulfonyl)(2-naphthyl)]amino}carboxamide], in the test on 3T3 L1 fibroblasts (setting [2]), the EC (150% of vehicle control) was 3.2 µM.

As to `Cc1ccc(OS(=O)(=O)c2cccc(NS(=O)(=O)c3cc(O)c4ccc(NC(=O)Nc5ccc6c(O)cc(S(=O)(=O)Nc7cccc(S(=O)(=O)Oc8ccc(C)cc8)c7)cc6c5)cc4c3)c2)cc1` [Compound 11, 4-methylphenyl 3-[({4-hydroxy-7-[(N-{5-hydroxy-7-[({3-[(4-methylphenyl)oxysulfonyl]phenyl}amino)sulfonyl](2-naphthyl)}carbamoyl)amino]-2-naphthyl}sulfonyl)amino]benzenesulfonate], the “% Activity vs. Control” value in test [1] turned out to be 96%. In the case of `O=C(Nc1ccc2c(O)cc(S(=O)(=O)Nc3ccccc3C(=O)O)cc2c1)Nc1ccc2c(O)cc(S(=O)(=O)Nc3ccccc3C(=O)O)cc2c1` [Compound 47, 2-{[(7-{[N-(7-{[(2-carboxyphenyl)amino]sulfonyl}-5-hydroxy(2-naphthyl))carbamoyl]amino}-4-hydroxy-2-naphthyl)sulfonyl]amino}benzoic acid], the EC (150% of vehicle control) in the test on 3T3 L1 fibroblasts (setting [2]) stood at 3.2 µM.
